pIC50: −log10 of the molar value. Counter-ions that a name gives are not always drawn. Like-named read-outs stand apart in the source and are kept apart here.
Tests used:
[1] = target: muscarinic receptors (rat cerebral cortex); assay type: binding, Hooded Lister rats; conditions: displacement of 0.27 nM 3H-QNB, rat cerebral cortex membranes, 50 mM tris pH 7.7, 37° C., 30 min
[2] = target: muscarinic receptors (rat cerebral cortex); test: Radio ligand binding: displacement of the muscarinic agonist 3H-Oxotremorine-M (3H-OXO-M); set-up: species or system Hooded Lister rats; conditions: displacement of 2nM 3H-OXO-M, rat cerebral cortex membranes, 2 mM magnesium chloride, 50 mM tris pH 7.7, 37° C., 30 min

Question: FCc1noc(C23CCCN(CC2)C3)n1 (racemic) [Example E1, (±) 5-(3-Fluoromethyl-1,2,4-oxadiazol-5-yl)-1azabicyclo[3.2.l]octane oxalate salt] was tested. Which pIC50 [1] did it give?
Answer: Its pIC50 is 6.05.

Question: What about the pIC50 [2] of the same molecule?
Answer: The pIC50 was 8.16.

Question: What does the source list for Nc1noc(C23CCCN(CC2)C3)n1 (racemic) [Example E2, (±) 5-(3-Amino-1,2,4-oxadiazol-5-yl)-1-azabicyclo-[3.2.11octane]?
Answer: pIC50 [1]: 5.70; pIC50 [2]: 7.96

Question: With Nc1noc(C23CCN(CC2)C3)n1 [Example E4] as the molecule, how does the pIC50 [1] read?
Answer: Its pIC50 is 5.65.

Question: And the pIC50 [2]?
Answer: The pIC50 was 7.49.

Question: How did the pIC50 [1] turn out when FCc1noc(C23CCN(CC2)C3)n1 [Example E5, 4-(3-Fluoromethyl-1,2,4-oxadiazol-5-yl)-1-azabicyclo[2.2.11heptane oxalate salt] was run?
Answer: The pIC50 was 4.71.

Question: What about the pIC50 [2] of the same molecule?
Answer: Its pIC50 is 6.85.

From patent US4988706A (priority 1988, dated 1991)
